# Activity calls are given as the source filed them.
# Columns and labels:
# [1] = target: Photoreceptor-specific nuclear receptor (Homo sapiens, UniProt Q9Y5X4); experiment: ligands suppressing NR2E3 nuclear receptor activity – biochemical, TR-FRET, dose response (AID 463256); assay type: functional
# [2] = target: Peroxisome proliferator-activated receptor gamma/Nuclear receptor corepressor 2 (Homo sapiens, UniProt P37231+Q9Y618); experiment: Counterscreen for NR2E3 inverse agonists: TR-FRET-based biochemical high throughput dose response assay to identify inverse agonists of the interaction between peroxisome proliferator-activated receptor gamma (PPARg) and nuclear receptor co-repressor 2 (NCOR2).; assay type: functional
# [3] = system: Streptococcus sp. 'group A'; experiment: Streptococcus pyogenes SK(-)GAS viability under kanamycin – luminescence, BacTiterGlo, confirmation, counter-screen for streptokinase expression inhibitor project, dose response (AID 1900); assay type: functional, organism-based
# [4] = target: Tyrosyl-DNA phosphodiesterase 2 (Homo sapiens, UniProt O95551); experiment: potency against TDP2 phosphodiesterase activity – biochemical, epi absorbance, IC50, dose response (AID 743297)
# Streptococcus = experiment: GAS UMAA2166 growth inhibition – luminescence, BacTiterGlo, counter-screen for streptokinase expression inhibitor project, dose response (AID 1915); assay type: functional, organism-based;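 also: potency for reduction of bacterial viability or growth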
# [5] = target: Voltage-gated inwardly rectifying potassium channel KCNH2 (Homo sapiens, UniProt Q12809); experiment: concentration-dependent hERG rescue from blockers – cell-based, thallium flux, dose response (AID 2121); assay type: ADME
# Galanin receptor type 2 = Galanin receptor type 2 (Homo sapiens, UniProt O43603); experiment: Dose Response cell-based high-throughput screening assay to identify antagonists of galanin receptor 2 (GALR2). [Related pubchem assays: 828, 866 ]; assay type: functional
# [6] = Dd2 parasite growth inhibition in erythrocytes – SYBR Green, dry powder samples, set 4, dose response (AID 1159572); assay type: functional, cell-based
# [7] = SNU-C1 cell viability reduction, dose response, CellTiter-Glo luminescence (AID 1117323); assay type: functional, cell-based
# [8] = Reduced DLD-1 viability, concentration-response, CellTiter-Glo luminescence (AID 1117352); assay type: functional
# [9] = cytotoxicity toward HCT116 cells – cell-based, CellTiter-Glo luminescence, IC50, dose response (AID 1117332); assay type: functional; conditions: HCT-116
# [10] = Potency on glucagon-like peptide 1 release, dose-response in NCI-H716 cell line, half maximal inhibitory concentration (AID 1117344); assay type: functional, cell-based
# [11] = RKO cell viability reduction, dose response, CellTiter-Glo luminescence (AID 1117322); assay type: functional
# [12] = cytotoxicity toward HT-29 cells – cell-based, CellTiter-Glo luminescence, IC50, dose response (AID 1117330); assay type: functional
# [13] = viability of PTEN-deleted HCT116 cells – cell-based, HCT116 PTEN knockout, dose response (AID 1047); assay type: functional;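 also: HCT116 colon tumor cells with PTEN knocked out; cells exposed to compound for 60 hours before readout; potency for loss of cell viability measured by luminescence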
# [14] = target: Heat shock protein HSP 90-alpha (Homo sapiens, UniProt P07900); assay type: functional, organism-based
# [15] = glucagon-like peptide-1 release potency in STC-1, concentration-response, half-maximal inhibitory concentration in the STC-1 line (AID 1117345); assay type: functional, cell-based
# [16] = viability of HCT116 lacking mutant beta-catenin – cell-based, human colon tumor, dose response (AID 1045); assay type: functional;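 also: HCT116 colon tumor cells with beta catenin knocked out; cells exposed to compound for 60 hours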
# [17] = cytotoxicity toward Colo320 cells – cell-based, CellTiter-Glo luminescence, IC50, dose response (AID 1117334); assay type: functional; conditions: COLO 320
# [18] = CellTiter-Glo luminescence survival assay, SW480 colon tumor line, concentration-response curve, half-maximal inhibitory concentration (AID 1117338); assay type: functional
# Oxytocin receptor = Oxytocin receptor (Homo sapiens, UniProt P30559); experiment: Fluorescence-based cell-based high throughput dose response assay for potentiators of Oxytocin Receptor (OXTR). [Related pubchem assays: 434985 (Confirmation screen (OXTR potentiators in triplicate)), 2481 (Summary (OXTR potentiators)), 2445 (Primary screen (OXTR potentiators in singlicate))]; assay type: functional
# [19] = target: T1, Low molecular weight phosphotyrosine protein phosphatase (Homo sapiens, UniProt P24666); experiment: inhibition of LMPTP-A enzymatic activity – biochemical, OMFP substrate, fluorescence intensity, set 2, dose response (AID 743307); assay type: functional
# T1 sequence (P24666 whole entry): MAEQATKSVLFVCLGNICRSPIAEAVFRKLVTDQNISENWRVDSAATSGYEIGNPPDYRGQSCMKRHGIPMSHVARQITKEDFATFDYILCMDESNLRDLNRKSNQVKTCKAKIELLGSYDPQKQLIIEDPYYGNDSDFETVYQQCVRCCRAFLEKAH
# [20] = target: T1, Low molecular weight phosphotyrosine protein phosphatase; experiment: inhibition of human LMPTP enzyme activity – biochemical, absorbance, pNPP substrate, LMPTP-A isoform, set 2, orthogonal assay, dose response (AID 743308); assay type: functional
# Bcl-2-related protein A1 [21] = target: T2, Bcl-2-related protein A1 (Mus musculus, UniProt Q07440); experiment: Bfl-1 binding inhibitors, SAR follow-up, biochemical, fluorescence polarization (AID 1070)
# T2 sequence (Q07440 whole entry): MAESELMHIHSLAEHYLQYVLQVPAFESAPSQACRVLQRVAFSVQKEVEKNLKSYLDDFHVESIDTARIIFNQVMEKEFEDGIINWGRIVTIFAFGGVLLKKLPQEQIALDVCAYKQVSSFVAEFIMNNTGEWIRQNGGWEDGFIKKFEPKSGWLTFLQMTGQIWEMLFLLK
# Bcl-2-related protein A1 [22] = target: T2, Bcl-2-related protein A1; experiment: small-molecule antagonists of Bfl-1/BH3 interaction – biochemical, TR-FRET, mouse Bfl-1, confirmation (AID 621);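 also: TR-FRET binding of GST-Bfl-1 to FITC-labelled Bid peptide via terbium antibody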
# [23] = Late stage counterscreen results from the probe development effort to identify activators of signal transducer and activator of transcription 1 (STAT1): luminescence-based cell-based dose response assay to identify cytotoxic compounds.; assay type: functional
# 14-3-3 protein gamma = 14-3-3 protein gamma (Homo sapiens, UniProt P61981); experiment: modulators of 14-3-3 gamma client binding – dose response (AID 711); assay type: functional
# Troponin, cardiac muscle = Troponin, cardiac muscle (Homo sapiens, UniProt P19429+P45379+P63316); experiment: Fluorescence-based biochemical high throughput dose response assay for activators of the calcium sensitivity of cardiac Regulated Thin Filaments (RTF). [Related pubchem assays (depositor defined):AID493008, AID493018, AID504382, AID504383]; assay type: protein-complex assay
# [24] = antiviral protection against BTV-induced cell death – arbovirus, BSR cells, confirmation (AID 1250); assay type: functional;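 also: protection from viral cytopathic effect measured as cell viability by ATP luminescence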
# [25] = mitochondrial function rescue without frataxin homolog – Friedreich's ataxia, plus single-dose screen, dose response (AID 1465); assay type: functional;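 also: yeast depleted of Yfh1p frataxin homolog grown on glycerol needing respiration; WST-1 tetrazolium dye reduction as measure of cellular dehydrogenase metabolic activity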
# Nonstructural protein 1 = Nonstructural protein 1 (Influenza A virus, UniProt Q194T2); assay type: functional, Influenza A virus (A/California/07/2009(H1N1))
# [26] = target: 5-hydroxytryptamine receptor 1E (Homo sapiens, UniProt P28566); experiment: Counterscreen assay for S1P3 antagonists: Dose response cell-based high throughput screening assay to identify antagonists of the 5-Hydroxytryptamine Receptor Subtype 1E (5HT1E). [Related pubchem assays: 1429, 485 ]; assay type: functional
# [27] = target: Sphingosine 1-phosphate receptor 3 (Homo sapiens, UniProt Q99500); experiment: Dose response cell-based high throughput screening assay for antagonists of the Sphingosine 1-Phosphate Receptor 3 (S1P3). [Related pubchem assays: 1429, 485 ]; assay type: functional
# [28] = target: Neuropeptide Y receptor type 2 (Homo sapiens, UniProt P49146); experiment: IC50 for human NPY-Y2 blockade – cell-based, counter-screen for NPY-Y1 antagonist project, dose response (AID 1278); assay type: functional
# [29] = M. tuberculosis growth inhibition, HTS (AID 449762); assay type: functional
# [30] = rise of 4N DNA cells, HeLa – IC50, dose response (AID 1117351); assay type: functional, cell-based
# [31] = rise of 2N DNA cells, HeLa – IC50, dose response (AID 1117349); assay type: functional, cell-based
# Procathepsin L = Procathepsin L (Homo sapiens, UniProt P07711); experiment: CTSL1 protease inhibition – biochemical, QFRET, 1536-well, counter-screen for M1/M17 aminopeptidase inhibitor project, dose response (AID 2214)
# Aspartyl aminopeptidase = Aspartyl aminopeptidase (Plasmodium falciparum 3D7, UniProt Q8I2J3); experiment: Counterscreen for inhibitors of M1 and M17 aminopeptidases: QFRET-based biochemical high throughput dose response assay for inhibitors of the Plasmodium falciparum M18 Aspartyl Aminopeptidase (PFM18AAP). [Related PubChem assays: 1619 (Screening assay (M17LAP inhibitors).), 1445 (Screening assay (M1AAP inhibitors).)]
# Leucine aminopeptidase = target: T3, Leucine aminopeptidase (Plasmodium falciparum 3D7, UniProt Q8IL11); experiment: P. falciparum M17LAP inhibitors, primary screen, biochemical, fluorogenic H-Leu-NHMec substrate, 1536-well (AID 1619); assay type: functional
# T3 sequence (Q8IL11 whole entry): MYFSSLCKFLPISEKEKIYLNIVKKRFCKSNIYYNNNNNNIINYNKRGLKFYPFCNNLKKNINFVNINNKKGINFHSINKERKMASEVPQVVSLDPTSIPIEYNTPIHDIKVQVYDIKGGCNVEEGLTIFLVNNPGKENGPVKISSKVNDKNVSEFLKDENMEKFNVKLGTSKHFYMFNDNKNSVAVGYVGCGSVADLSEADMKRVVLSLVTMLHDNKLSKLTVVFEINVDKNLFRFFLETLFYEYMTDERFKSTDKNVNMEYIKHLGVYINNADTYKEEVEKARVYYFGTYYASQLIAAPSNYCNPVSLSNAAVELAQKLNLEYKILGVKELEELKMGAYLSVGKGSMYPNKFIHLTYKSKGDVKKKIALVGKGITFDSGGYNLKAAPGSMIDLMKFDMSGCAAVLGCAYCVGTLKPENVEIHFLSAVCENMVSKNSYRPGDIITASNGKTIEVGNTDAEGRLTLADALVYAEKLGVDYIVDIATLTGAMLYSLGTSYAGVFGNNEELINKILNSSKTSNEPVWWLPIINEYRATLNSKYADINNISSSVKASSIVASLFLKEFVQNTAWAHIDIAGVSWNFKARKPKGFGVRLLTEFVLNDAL
# Chain of Peroxisome proliferator-activated receptor gamma/Nuclear receptor corepressor 2 (P37231 whole entry): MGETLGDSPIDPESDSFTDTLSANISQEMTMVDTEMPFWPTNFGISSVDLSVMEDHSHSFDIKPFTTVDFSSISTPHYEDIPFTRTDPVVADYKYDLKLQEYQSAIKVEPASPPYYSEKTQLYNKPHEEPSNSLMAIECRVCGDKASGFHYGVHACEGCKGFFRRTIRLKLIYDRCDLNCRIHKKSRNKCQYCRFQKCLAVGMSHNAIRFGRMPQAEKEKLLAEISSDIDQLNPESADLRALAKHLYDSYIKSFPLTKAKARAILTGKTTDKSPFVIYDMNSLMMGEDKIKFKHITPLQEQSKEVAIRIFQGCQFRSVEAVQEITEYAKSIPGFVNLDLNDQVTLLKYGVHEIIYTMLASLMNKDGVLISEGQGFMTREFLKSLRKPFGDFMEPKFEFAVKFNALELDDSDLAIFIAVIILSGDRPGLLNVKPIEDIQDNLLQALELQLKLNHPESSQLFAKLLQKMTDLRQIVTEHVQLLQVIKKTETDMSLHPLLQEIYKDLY
# Chain of Peroxisome proliferator-activated receptor gamma/Nuclear receptor corepressor 2 (Q9Y618 whole entry): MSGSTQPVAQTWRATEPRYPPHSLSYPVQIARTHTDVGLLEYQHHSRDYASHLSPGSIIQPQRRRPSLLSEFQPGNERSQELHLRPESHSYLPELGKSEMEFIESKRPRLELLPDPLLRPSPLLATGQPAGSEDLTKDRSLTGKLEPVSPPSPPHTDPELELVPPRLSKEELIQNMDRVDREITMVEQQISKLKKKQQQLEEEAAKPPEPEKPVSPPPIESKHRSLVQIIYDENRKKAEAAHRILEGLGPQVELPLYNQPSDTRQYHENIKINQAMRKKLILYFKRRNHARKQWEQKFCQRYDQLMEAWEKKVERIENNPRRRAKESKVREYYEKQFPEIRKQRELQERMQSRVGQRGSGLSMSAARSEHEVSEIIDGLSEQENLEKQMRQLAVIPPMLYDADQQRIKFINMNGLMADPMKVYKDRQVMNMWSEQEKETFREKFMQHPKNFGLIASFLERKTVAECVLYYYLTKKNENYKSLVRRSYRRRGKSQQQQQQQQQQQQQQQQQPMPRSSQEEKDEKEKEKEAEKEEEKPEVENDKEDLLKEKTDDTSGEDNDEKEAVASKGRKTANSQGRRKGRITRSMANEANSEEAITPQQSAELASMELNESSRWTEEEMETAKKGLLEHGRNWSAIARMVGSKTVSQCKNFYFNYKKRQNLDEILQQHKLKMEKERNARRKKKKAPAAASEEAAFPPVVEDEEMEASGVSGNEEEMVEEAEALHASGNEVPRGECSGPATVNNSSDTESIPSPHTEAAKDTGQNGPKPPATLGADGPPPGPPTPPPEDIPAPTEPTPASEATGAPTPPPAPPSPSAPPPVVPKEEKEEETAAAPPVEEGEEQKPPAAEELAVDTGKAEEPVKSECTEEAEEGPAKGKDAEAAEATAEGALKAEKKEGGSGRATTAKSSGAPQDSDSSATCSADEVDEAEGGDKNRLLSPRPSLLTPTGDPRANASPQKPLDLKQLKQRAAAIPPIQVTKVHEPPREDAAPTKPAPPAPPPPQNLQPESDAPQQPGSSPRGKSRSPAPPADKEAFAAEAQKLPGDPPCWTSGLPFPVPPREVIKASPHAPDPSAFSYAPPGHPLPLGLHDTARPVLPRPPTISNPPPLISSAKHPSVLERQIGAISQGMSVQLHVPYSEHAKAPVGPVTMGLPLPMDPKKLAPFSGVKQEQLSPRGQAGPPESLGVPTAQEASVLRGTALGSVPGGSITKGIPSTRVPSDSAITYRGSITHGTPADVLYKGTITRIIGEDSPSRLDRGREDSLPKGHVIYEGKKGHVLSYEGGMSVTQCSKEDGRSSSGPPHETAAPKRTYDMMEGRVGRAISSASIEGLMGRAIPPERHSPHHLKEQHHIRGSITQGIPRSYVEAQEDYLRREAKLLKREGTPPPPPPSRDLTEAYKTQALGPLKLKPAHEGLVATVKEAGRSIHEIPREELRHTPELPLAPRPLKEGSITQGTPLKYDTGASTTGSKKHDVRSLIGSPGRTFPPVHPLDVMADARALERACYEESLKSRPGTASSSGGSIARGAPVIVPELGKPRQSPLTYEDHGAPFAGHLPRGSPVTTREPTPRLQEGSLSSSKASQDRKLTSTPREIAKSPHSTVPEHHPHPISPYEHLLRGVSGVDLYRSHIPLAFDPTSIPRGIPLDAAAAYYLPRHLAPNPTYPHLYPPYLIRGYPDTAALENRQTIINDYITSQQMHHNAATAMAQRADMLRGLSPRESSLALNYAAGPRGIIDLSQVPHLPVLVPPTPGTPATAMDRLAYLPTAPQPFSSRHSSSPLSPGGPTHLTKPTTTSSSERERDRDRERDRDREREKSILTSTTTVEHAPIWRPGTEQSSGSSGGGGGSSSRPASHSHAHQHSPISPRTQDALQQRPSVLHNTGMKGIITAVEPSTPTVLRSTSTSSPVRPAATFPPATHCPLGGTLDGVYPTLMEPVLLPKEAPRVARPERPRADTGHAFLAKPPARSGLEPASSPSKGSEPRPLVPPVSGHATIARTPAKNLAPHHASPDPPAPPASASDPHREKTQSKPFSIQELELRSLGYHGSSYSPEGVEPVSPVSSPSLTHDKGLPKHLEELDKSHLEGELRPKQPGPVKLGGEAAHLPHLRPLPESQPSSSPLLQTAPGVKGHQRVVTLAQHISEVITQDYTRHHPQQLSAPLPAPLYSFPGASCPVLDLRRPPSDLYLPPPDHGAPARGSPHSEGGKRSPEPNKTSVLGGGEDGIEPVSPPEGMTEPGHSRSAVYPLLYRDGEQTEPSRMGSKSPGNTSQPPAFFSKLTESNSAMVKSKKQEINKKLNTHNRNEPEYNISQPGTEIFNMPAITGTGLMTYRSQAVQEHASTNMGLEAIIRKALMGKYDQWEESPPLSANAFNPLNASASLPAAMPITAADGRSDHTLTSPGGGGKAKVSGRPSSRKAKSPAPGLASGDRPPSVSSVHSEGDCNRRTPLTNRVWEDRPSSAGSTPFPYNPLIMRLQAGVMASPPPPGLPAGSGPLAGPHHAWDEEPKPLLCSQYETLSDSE
# Chain of Oxytocin receptor (P30559 whole entry): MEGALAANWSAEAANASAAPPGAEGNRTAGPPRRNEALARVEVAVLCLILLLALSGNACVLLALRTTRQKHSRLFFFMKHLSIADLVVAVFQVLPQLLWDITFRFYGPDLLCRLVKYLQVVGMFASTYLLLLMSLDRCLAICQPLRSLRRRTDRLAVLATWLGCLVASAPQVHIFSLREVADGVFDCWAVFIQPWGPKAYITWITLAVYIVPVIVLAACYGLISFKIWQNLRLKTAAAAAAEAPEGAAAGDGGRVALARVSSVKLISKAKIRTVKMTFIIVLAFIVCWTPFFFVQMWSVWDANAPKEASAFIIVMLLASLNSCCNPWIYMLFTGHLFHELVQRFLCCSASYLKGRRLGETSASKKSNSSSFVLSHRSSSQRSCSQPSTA
# Chain of Procathepsin L (P07711 whole entry): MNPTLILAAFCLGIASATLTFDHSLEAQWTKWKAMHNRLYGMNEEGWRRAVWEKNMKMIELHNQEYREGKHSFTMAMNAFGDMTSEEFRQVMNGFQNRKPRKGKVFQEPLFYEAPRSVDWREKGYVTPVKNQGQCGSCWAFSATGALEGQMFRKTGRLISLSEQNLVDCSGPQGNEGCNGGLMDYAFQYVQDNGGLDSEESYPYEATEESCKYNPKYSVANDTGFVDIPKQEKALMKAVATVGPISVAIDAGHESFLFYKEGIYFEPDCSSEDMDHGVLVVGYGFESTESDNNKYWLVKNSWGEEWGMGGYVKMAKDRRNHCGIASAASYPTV
# Chain of Nonstructural protein 1 (Q194T2 whole entry): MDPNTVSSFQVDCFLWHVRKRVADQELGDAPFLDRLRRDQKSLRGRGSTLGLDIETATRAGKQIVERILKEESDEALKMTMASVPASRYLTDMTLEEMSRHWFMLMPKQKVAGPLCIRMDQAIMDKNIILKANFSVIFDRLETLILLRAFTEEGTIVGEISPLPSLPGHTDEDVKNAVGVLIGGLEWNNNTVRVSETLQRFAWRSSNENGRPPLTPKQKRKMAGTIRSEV
# Chain of Galanin receptor type 2 (O43603 whole entry): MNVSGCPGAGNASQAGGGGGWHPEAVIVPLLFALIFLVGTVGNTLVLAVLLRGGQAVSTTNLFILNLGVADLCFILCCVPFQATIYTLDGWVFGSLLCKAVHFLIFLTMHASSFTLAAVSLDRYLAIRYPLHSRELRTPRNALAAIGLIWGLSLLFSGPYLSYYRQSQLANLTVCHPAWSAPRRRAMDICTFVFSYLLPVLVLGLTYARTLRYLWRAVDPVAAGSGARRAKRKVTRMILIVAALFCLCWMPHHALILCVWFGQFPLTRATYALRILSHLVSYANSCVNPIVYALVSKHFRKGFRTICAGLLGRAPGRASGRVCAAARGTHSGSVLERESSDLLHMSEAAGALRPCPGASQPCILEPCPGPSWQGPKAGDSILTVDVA
# Chain of Neuropeptide Y receptor type 2 (P49146 whole entry): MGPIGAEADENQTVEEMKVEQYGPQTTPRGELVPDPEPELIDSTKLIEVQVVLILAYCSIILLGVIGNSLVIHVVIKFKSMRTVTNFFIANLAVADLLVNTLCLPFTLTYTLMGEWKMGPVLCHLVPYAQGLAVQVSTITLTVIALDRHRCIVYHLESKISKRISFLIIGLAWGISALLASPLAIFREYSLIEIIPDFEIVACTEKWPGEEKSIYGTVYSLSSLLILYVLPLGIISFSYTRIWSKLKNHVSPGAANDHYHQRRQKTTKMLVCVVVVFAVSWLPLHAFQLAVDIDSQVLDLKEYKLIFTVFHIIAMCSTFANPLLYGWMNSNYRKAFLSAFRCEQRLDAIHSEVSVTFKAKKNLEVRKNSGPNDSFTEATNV
# Chain of 14-3-3 protein gamma (P61981 whole entry): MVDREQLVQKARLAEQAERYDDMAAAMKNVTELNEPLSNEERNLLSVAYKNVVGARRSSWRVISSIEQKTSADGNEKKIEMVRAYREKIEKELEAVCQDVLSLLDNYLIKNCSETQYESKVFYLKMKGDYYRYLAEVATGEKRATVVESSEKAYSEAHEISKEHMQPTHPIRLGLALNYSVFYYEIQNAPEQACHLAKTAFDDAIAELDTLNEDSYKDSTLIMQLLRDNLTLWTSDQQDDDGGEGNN
structure (smiles),measurement,setting,value
COc1ccc(NC(=O)CSc2nnc(-c3cccs3)n2-c2ccccc2)cc1,IC50,[1],2.09 µM (active)
same,IC50,[2],2.16 µM (active)
CCOC(=O)C1=C(Cc2ccc(C)cc2)C(=O)c2ccccc2C1=O,EC50,[3],6.54 µM (active)
same,IC50,[4],> 128 µM (inactive)
same,EC50,Streptococcus,6.91 µM (active)
same,EC50,[5],4.1 µM (active)
c1ccc2c3nc[nH]c(NCC4CCCO4)c-3nc2c1 (configuration not stated),IC50,Galanin receptor type 2,> 42 µM (not active)
COc1ccc2c3c([nH]c2c1)[C@H](CO)N(C(C)=O)CC31CCN(C(C)=O)CC1,AC50,[6],16.5 µM (active)
Oc1ccc(Cl)cc1Cc1cc(Cl)ccc1O [DICHLOROPHEN],IC50,[7],0.546 µM (active)
same,IC50,[8],0.862 µM (active)
same,IC50,[9],1.55 µM (active)
same,IC50,[10],15.6 µM (inactive)
same,IC50,[11],1.93 µM (active)
same,IC50,[12],4.69 µM (active)
same,EC50,[13],15.7 µM (active)
same,AC50,[14],8 µM (active)
same,IC50,[15],> 40 µM (inactive)
same,EC50,[16],16.4 µM (active)
same,IC50,[17],1.21 µM (active)
same,IC50,[18],2.5 µM (active)
CCOc1ccc(-c2c(C(=O)N/N=C/c3ccc(Cl)cc3)nnn2-c2nonc2N)cc1,EC50,Oxytocin receptor,> 29.9 µM (not active)
c1ccc(-c2cc(SCCCN3CCCCC3)c3ccccc3n2)cc1,IC50,[19],66.9 µM (inactive)
same,IC50,[20],> 80 µM (inactive)
Clc1ccc(-n2nnc(-c3cccnc3Cl)n2)cn1,IC50,Bcl-2-related protein A1 [21],> 100 µM (not active)
same,IC50,Bcl-2-related protein A1 [22],> 100 µM (not active)
Cc1nnc(SCC(=O)Nc2ccc(-c3nc4ccccc4s3)cc2)s1,IC50,[23],> 55.7 µM (not active)
COc1ncnc2c1N=C1CC(C)(C)CC(N)=C1S2,IC50,14-3-3 protein gamma,30 µM (active)
same,EC50,"Troponin, cardiac muscle",> 7.94 µM (active)
CCOc1ccc(-n2c(SCC(=O)Nc3cc(OC)c([N+](=O)[O-])cc3C)nc3ccccc32)cc1,IC50,[24],43 µM (active)
COc1cc([N+](=O)[O-])cc(/C=N/NC(=O)c2ccc(C)nc2)c1O,EC50,[3],2.62 µM (active)
same,EC50,[25],> 100 µM (active)
same,EC50,Streptococcus,2.22 µM (active)
same,IC50,Nonstructural protein 1,5.49 µM (active)
Cc1cc(C(=O)CSc2nc3ccccc3c(=O)n2C)c(C)n1CC1CCCO1 (configuration not stated),IC50,[26],> 50 µM (not active)
same,IC50,[27],> 50 µM (not active)
same,IC50,[28],> 35 µM (not active)
Cn1nnc(NC(=S)NC(=O)c2ccc(-c3ccc(Br)cc3)o2)n1,IC50,[29],> 100 µM (active)
CC(C)(C)C(=O)OCOP(=O)(COCCn1cnc2c(N)ncnc21)OCOC(=O)C(C)(C)C [ADEFOVIR DIPIVOXIL],IC50,[30],> 10 µM (inactive)
same,IC50,[31],> 10 µM (inactive)
N#Cc1c(NC(=O)C2CC=CCC2C(=O)O)sc2c1CCCCCC2 (configuration not stated),IC50,Procathepsin L,> 59.6 µM (not active)
same,IC50,Aspartyl aminopeptidase,> 73.5 µM (not active)
same,IC50,Leucine aminopeptidase,< 1 µM (active)

# — ChEMBL document CHEMBL1201862, “PubChem BioAssay data set” (2004)
